{"source": "patent US10688070B2", "about": "“Serine glycerophospholipid preparation and method for treatment of seizures” (ENZYMOTEC LTD., priority 2013, dated 2020)", "origin": "cited, not measured here", "system": "Valproate adverse events (hepatotoxicity)", "settings": "in vivo"}
{"smiles": "CC/C=C\\C/C=C\\C/C=C\\C/C=C\\C/C=C\\CCCC(=O)O", "note": "[EPA, Eicosapentanoic acid]", "values": [{"measurement": "Effect on adverse events of Valproate", "value": "did not reveal the same effect"}]}
